The nature of test [1]: Inhibition of bovine recombinant PI3Kgamma expressed in baculovirus-infected Sf21 cells. Set-up: species or system Bos taurus.
Test [2] addresses Phosphatidylinositol 4,5-bisphosphate 3-kinase catalytic subunit alpha isoform (Mus musculus, UniProt P42337). The test can be described thus: Inhibition of mouse recombinant PI3Kalpha expressed in baculovirus-infected Sf21 cells.
Test [3] has as its target T1, Phosphatidylinositol 4,5-bisphosphate 3-kinase catalytic subunit delta isoform (Homo sapiens, UniProt O00329).
T1 sequence (O00329 whole entry): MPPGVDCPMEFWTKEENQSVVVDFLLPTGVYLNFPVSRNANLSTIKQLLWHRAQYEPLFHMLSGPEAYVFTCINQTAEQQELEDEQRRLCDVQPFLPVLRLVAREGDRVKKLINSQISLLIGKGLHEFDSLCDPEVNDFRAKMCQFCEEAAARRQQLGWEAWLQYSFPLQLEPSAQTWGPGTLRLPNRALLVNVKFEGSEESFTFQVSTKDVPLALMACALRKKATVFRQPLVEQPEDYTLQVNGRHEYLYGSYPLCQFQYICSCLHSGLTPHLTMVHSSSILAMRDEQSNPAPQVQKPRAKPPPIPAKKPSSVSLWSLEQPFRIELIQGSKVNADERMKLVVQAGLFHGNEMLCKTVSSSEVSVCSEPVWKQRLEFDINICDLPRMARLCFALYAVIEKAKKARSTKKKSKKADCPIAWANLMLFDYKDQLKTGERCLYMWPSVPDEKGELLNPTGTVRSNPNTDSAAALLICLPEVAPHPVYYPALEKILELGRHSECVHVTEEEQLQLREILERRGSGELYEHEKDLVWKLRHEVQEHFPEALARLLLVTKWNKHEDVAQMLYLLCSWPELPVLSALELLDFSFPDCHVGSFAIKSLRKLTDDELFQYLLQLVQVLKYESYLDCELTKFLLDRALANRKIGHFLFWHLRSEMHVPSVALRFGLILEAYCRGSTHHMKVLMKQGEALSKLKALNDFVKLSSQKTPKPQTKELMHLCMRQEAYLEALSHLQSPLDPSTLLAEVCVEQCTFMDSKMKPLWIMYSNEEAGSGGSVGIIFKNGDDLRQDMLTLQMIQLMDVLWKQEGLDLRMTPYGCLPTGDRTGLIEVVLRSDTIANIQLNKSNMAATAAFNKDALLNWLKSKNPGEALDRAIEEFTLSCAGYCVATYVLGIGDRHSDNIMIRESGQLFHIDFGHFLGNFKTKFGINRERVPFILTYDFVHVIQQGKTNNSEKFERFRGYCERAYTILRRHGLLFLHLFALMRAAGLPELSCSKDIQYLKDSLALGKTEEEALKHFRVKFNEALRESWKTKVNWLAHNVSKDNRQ
The test can be described thus: Inhibition of recombinant PI3Kdelta expressed in baculovirus-infected Sf21 cells.

Test [4] has as its target T2, Phosphatidylinositol 4,5-bisphosphate 3-kinase catalytic subunit delta isoform (Homo sapiens) (UniProt O00329).
T2 sequence (whole entry): T1 sequence (O00329 whole entry)
In words: Inhibition of recombinant PI3Kdelta expressed in baculovirus-infected Sf21 cells at 100 uM.

The nature of test [5]: Inhibition of bovine recombinant PI3Kgamma expressed in baculovirus-infected Sf21 cells at 100 uM. To be noted: Bos taurus.
Test [6] deals with Phosphatidylinositol 4,5-bisphosphate 3-kinase catalytic subunit alpha isoform (Mus musculus) (UniProt P42337). In words: Inhibition of mouse recombinant PI3Kalpha expressed in baculovirus-infected Sf21 cells at 100 uM.
Phosphatidylinositol 4,5-bisphosphate 3-kinase catalytic subunit alpha isoform (Mus musculus), sequence (P42337 whole entry, canonical isoform): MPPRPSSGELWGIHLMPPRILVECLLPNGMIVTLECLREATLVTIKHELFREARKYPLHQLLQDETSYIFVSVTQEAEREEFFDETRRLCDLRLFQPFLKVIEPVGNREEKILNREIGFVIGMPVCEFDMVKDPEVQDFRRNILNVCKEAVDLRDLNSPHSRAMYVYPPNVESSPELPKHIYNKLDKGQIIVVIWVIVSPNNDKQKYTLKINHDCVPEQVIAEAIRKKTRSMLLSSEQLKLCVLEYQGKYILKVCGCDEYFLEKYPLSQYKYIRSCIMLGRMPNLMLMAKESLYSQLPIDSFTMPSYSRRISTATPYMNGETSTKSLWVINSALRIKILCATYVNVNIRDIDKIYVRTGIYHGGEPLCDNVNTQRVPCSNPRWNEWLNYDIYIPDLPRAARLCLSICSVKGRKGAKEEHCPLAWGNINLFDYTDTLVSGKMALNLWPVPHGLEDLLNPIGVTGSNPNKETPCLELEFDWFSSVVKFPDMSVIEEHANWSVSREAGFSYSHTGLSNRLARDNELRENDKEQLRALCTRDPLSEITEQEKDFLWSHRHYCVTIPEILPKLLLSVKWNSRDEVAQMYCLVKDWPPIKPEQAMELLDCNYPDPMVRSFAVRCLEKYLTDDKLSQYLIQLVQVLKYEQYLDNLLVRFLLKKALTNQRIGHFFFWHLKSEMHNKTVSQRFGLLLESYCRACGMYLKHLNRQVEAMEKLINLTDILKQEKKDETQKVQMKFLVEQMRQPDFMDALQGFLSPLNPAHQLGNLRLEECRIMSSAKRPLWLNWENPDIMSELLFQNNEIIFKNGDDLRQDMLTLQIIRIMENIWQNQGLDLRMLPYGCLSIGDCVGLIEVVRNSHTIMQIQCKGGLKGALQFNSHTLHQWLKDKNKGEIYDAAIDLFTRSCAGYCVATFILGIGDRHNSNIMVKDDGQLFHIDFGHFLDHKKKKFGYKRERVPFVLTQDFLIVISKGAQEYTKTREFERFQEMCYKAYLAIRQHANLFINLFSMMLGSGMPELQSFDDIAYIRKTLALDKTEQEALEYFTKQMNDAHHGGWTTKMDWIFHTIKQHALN
Test [7] addresses T3, Phosphatidylinositol 4,5-bisphosphate 3-kinase catalytic subunit beta isoform (Homo sapiens, UniProt P42338). The test can be described thus: Inhibition of human recombinant PI3Kbeta expressed in baculovirus-infected Sf21 cells.
Target sequence in this assay (P42338 whole entry, canonical isoform): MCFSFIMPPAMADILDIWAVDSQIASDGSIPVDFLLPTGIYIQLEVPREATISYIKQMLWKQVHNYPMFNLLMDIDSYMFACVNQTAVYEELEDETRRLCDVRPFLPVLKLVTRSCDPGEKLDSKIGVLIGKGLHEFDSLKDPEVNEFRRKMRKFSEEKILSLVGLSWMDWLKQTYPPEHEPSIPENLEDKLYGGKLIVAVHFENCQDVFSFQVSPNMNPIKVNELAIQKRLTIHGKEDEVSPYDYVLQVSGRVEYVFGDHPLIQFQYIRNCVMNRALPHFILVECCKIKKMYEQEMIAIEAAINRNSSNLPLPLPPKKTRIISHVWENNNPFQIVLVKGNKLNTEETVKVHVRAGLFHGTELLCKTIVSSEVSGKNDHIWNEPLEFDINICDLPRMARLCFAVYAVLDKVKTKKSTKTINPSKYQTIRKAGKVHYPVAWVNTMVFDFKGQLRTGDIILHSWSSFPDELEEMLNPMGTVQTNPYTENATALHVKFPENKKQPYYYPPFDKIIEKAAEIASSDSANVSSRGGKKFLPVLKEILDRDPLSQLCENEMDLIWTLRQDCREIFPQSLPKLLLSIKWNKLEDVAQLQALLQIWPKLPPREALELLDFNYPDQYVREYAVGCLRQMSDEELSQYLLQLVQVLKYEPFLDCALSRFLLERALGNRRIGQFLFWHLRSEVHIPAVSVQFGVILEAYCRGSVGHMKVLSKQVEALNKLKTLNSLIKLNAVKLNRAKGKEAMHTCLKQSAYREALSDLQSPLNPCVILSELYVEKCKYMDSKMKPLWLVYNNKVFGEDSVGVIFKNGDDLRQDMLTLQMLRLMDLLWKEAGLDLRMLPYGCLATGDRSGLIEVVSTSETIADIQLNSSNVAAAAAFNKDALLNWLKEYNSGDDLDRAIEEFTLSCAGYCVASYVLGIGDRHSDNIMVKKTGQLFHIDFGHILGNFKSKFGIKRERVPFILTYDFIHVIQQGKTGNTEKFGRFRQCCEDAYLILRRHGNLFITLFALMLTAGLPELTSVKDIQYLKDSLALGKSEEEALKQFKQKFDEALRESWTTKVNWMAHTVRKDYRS
Test [8] has as its target T3, Phosphatidylinositol 4,5-bisphosphate 3-kinase catalytic subunit beta isoform. In words: Inhibition of human recombinant PI3Kbeta expressed in baculovirus-infected Sf21 cells at 100 uM.
Target sequence in this assay (P42338 whole entry, looked up, canonical isoform): as the sequence (P42338 whole entry, canonical isoform) above
Test [9] is described as follows: Selectivity for PI3Kgamma over PI3Kbeta.
Test [10] in a line: Selectivity for PI3Kgamma over PI3Kalpha.
A short description of test [11]: Selectivity for PI3Kgamma over PI3Kdelta.

Phosphatidylinositol 4,5-bisphosphate 3-kinase catalytic subunit alpha isoform, sequence (P42337 whole entry, canonical isoform): as the sequence (P42337 whole entry, canonical isoform) above

Take `O=C(CCn1c(=O)oc2cc(Cl)ccc21)Nc1ccccc1`: the 50% inhibitory concentration (IC50) in test [1] is 6 µM; in [2], 19 µM; in test [3], over 100 µM; in test [7] it was 12 µM. Further, the inhibition in test [4], in test [5], in test [6] and in test [8] was over 40% throughout.
For the molecule `COC(=O)c1ccc(CSc2ncnc3sc(C)c(C)c23)o1`, the IC50 in test [1] was 71 µM; in test [2], over 100 µM; in [3], over 100 µM; in [7] it was over 100 µM. Further, the inhibition in test [4], in test [5], in [6] and in test [8] was over 40% throughout.
Take `O=c1cc(N2CCOCC2)oc2c(-c3ccccc3)cccc12` [LY-294002]: the inhibition in test [4], in test [5], in test [6] and in test [8] was over 40% in each case.
`Cc1ccc2cc3c(OC(=O)COc4ccccc4)nn(C)c3nc2c1`: the IC50 was 16 µM in [1], 38 µM in test [2], 47 µM in test [3] and over 100 µM in [7]. For the same molecule, the inhibition in test [4], in test [5], in test [6] and in test [8] was over 40% throughout.
As to `COc1cccc(-c2nc(-c3cc4cc(OC)ccc4[nH]c3=O)no2)c1`, the half-inhibitory concentration (IC50) worked out at 4 µM in [1], 0.9 µM in test [2], 0.9 µM in test [3] and 3 µM in [7]. In addition, the inhibition in test [4], in [5], in test [6] and in test [8] was over 40% in each case.
Consider `O=C1NC(=O)/C(=C/c2ccc3nccnc3c2)S1`, for which the results for the Ratio in test [9], in [10] and in test [11] were over 30, 7.5 and over 30, respectively.
In the case of `COc1nc(-c2ccccc2)ccc1-c1noc(-c2ccncc2)n1`, the IC50 in [1] is over 100 µM; in [2], 78 µM; in [7], over 100 µM. The inhibition in [4], in test [5], in test [6] and in test [8] was over 40% each time.
For `O=c1oc2cc(O)ccc2cc1-c1nc2ccccc2s1`, the 50% inhibitory concentration (IC50) was found to be 12 µM in test [1], 3 µM in test [2], 4 µM in test [3] and 14 µM in [7]. For the same molecule, the inhibition in test [4], in [5], in [6] and in test [8] was over 40% each time.
Take `COc1ccccc1-c1nc(-c2cc3cc(C)ccc3[nH]c2=O)no1`: the concentration for half-maximal inhibition (IC50) in test [1] is 75 µM; in test [2], over 100 µM. Also, the inhibition in test [4], in [5], in [6] and in [8] was over 40% in each case.

The record behind these values is ChEMBL document CHEMBL1156056, “Phosphoinositide-3-kinase (PI3K) inhibitors: identification of new scaffolds using virtual screening” (Bioorg Med Chem Lett, 2009).
